Here are results for 4 compounds from publication PMC6906117, “Desolvation of the substrate-binding protein TauA dictates ligand specificity for the alkanesulfonate ABC importer TauABC” (Biochemical Journal, 2019).

Experiment [1] deals with T1, TauA (Escherichia coli, UniProt Q47537).
T1 construct: His tag with TEV site (pEHisTEV vector) (cleaved yes); made in house; host or cells: E. coli BL21 (DE3)
Put plainly: Isothermal titration calorimetry, ligand binding to wild-type TauA. Also on record: species or system E. coli. Here is the method:
The gene encoding for the mature TauA from E. coli (accession number: K12-Q47537) was cloned into the pEHisTEV vector. BL21 (DE3) cells transformed with pEHisTEVtauA plasmid were grown at 310 K. Isopropyl β-D-1-thiogalactopyranoside was added to a final concentration of 0.5 mM when the culture reached an OD600 of 0.6, and the growth continued at 298 K for 18 h. Cells were harvested by centrifugation (6000×g) and resuspended in PBS supplemented with 20 mM imidazole and 3 mM MgCl2. Cells were lysed by sonication (10 cycles; 10 s per cycle with 10 s interval on ice) followed by centrifugation at 30 000 g for 1 h. The supernatant was subjected to Ni-NTA affinity chromatography followed by overnight dialysis with TEV protease and size exclusion chromatography using a Superdex S-200 column equilibrated with 20 mM Tris (pH 7.5) and 150 mM NaCl. […] SDS–PAGE indicated high purity.
(§1) Binding of ligands to TauA and mutants was measured at 298 K using ITC (MicroCal iTC200 microcalorimeter, Malvern Instruments). The protein buffer was in 20 mM Tris (pH 7.5) and 150 mM NaCl (ITC buffer). Protein and ligands were diluted to desired concentrations using ITC buffer. The pH of protein and ligand was adjusted at 277 K. An amount of 200 µl of protein and 60 µl of ligand was added into the sample cell and injection syringe, respectively. Seventeen 2.4 µl injections were performed with a pre-injection of 0.5 µl, a 180 s interval and an injection speed of 0.5 µl/s. Control experiments were performed where ligand was injected into ITC buffer. The heat of interaction was obtained by subtracting control measurements (heat of dilution) from the experimental measurements. The baseline was generated and the concentration-normalized binding isotherm was integrated using the MicroCal Origin software (version 7). The first injection peak was deleted from the isotherm. The isotherm was fitted to a single-site binding model. Values of binding constant (Ka, M^−1), enthalpy change (ΔH, J/mol) and binding stoichiometry (n) were allowed to vary (unless mentioned specifically) during the fitting procedure. The dissociation constant (Kd, M) and entropy change (ΔS, J/mol/K) were derived from Ka, ΔH and n accordingly. The Kd value is derived from the absolute value of Ka (Kd = 1/Ka).
Background: In ITC the heat of successive injections is recorded.

The target in experiment [2] is TauA Glu106Ala (Escherichia coli, UniProt Q47537, E106A). It counts as binding, E. coli. Particulars: ITC, Glu106Ala mutant. As to the method:
(§2) Alanine-substituted TauA mutants (Gln30Ala, Glu106Ala, Thr132Ala and Asp205Ala) were generated by PCR using the QuikChange Lightning Site-Directed Mutagenesis Kit (Agilent Technologies). Mutations were confirmed by DNA sequencing. Mutants were expressed and purified as for the wild-type TauA.
as §1, with “Values of binding constant (Ka, M^−1), enthalpy change (ΔH, J/mol) and binding stoichiometry (n) were allowed to vary (unless mentioned specifically) during the fitting procedure. The dissociation constant (Kd, M) and entropy change (ΔS, J/mol/K) were derived from Ka, ΔH and n accordingly. The Kd value is derived from the absolute value of Ka (Kd = 1/Ka).” left out

Experiment [3] deals with TauA Thr132Ala (Escherichia coli, UniProt Q47537, T132A). Put plainly: biochemical. The class given is binding, E. coli. Particulars: Thr132Ala mutant. As to the method: as §2, §1
Chain of TauA Thr132Ala (Q47537 23-320 T132A): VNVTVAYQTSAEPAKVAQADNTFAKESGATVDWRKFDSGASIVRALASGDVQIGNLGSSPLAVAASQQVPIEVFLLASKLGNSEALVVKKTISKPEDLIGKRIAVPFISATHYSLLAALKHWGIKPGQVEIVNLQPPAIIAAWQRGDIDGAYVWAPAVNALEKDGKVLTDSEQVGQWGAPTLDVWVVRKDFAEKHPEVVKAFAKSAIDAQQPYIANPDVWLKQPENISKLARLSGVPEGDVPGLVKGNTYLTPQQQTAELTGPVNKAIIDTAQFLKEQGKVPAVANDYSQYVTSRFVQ
For experiment [4], the target named is TauA Gln30Ala (Escherichia coli, UniProt Q47537, Q30A). Kind of experiment: biochemical. The class given is binding, E. coli. Particulars: ITC, Gln30Ala mutant. As to the method:
as §2, §1

In experiment [5] the target is TauA Asp205Ala (Escherichia coli, UniProt Q47537, D205A). Put plainly: biochemical. The class given is binding, E. coli. Particulars: Asp205Ala mutant. As to the method:
as §2, §1

Setting [6] is: stoichiometry fixed to 0.8 during data fitting.
Where [7] appears, read: ITC, 298 K, 20 mM Tris pH 7.5, 150 mM NaCl, read-out: Kd.
Setting [8] is: ITC, read-out: Kd (apparent affinity).

“Also recorded” adds a separate entry of the source. Read-outs that look alike come from different tables or passages of the source. Marks after values point to notes of the source that are not given here.

T1 sequence (Q47537 23-320): as the sequence (Q47537 23-320 T132A) above, with A110T counted along it
Chain of TauA Asp205Ala (Q47537 23-320 D205A): as the sequence (Q47537 23-320 T132A) above, with A110T, D183A counted along it
Chain of TauA Gln30Ala (Q47537 23-320 Q30A): as the sequence (Q47537 23-320 T132A) above, with Q8A, A110T counted along it
Chain of TauA Glu106Ala (Q47537 23-320 E106A): as the sequence (Q47537 23-320 T132A) above, with E84A, A110T counted along it

In the case of `NCCP(=O)(O)O` [2-AEP, 2-Aminoethylphosphonic acid], in experiment [1] (ITC), the “heat of binding to TauA (exothermic/endothermic)” value (shortened to “heat … (exothermic/endothermic)”) is on record as “endothermic”. In experiment [1] (ITC, 298 K), the ΔH is on record as 0.016 (±0.03%) kJ/mol and the ΔS is 2.33 J/mol/K. In addition, the Kd in experiment [1] (Kd (apparent affinity), ITC) is 649 µM. This compound registered a Kd in experiment [1] (Kd, ITC, 298 K, 20 mM Tris pH 7.5, 150 mM NaCl) of 649 µM. In addition, the Stoichiometry in experiment [1] (setting [6]) is recorded as 0.8 ^*.
As to `NC(=O)CNCCS(=O)(=O)O` [ACES, N-(2-acetamido)-2-aminoethanesulfonic acid], the “heat … (exothermic/endothermic)” value in experiment [1] (ITC) is on record as “exothermic”. In addition, in experiment [1] (ITC, 298 K), the ΔH is on record as −1.44 (±3.3%) kJ/mol and the ΔS was 1.87 J/mol/K. Besides, the Kd in experiment [1] (setting [7]) worked out at 7.46 µM. Also, the Stoichiometry in experiment [1] (ITC, fitted n) was 0.79(±2.4%). For the same compound, the Kd in experiment [1] (setting [8]) is 7.4 µM.
Turning to `O=S(=O)(O)CCN1CCOCC1` [MES, 2-(N-morpholino)ethanesulfonate], in experiment [1] (ITC), the “heat … (exothermic/endothermic)” value is on record as “endothermic”. In addition, the ΔH in experiment [1] (ITC, 298 K) is listed as 4.74 (±0.8%) kJ/mol. For the same compound, the ΔS in experiment [1] (ITC, 298 K) is 2.45 J/mol/K. The Kd in experiment [1] (setting [7]) was 2.85 µM; in experiment [1] (setting [8]) it was 2.8 µM. In addition, the Stoichiometry in experiment [1] (ITC, fitted n) is reported as 0.868(±0.5%).
As to `NCCS(=O)(=O)O` [taurine, 2-aminoethanesulfonic acid], the taurine binding affinity result in experiment [2] was “detrimental to taurine binding; also recorded: No binding affinity could be measured”. The ΔH in experiment [3] (ITC) is listed as −28.76 (±8%) kJ/mol; in experiment [4], −17.87 (±8%) kJ/mol; in experiment [5] (ITC), −34.83 (±2%) kJ/mol; in experiment [1] (ITC, 298 K), −61.04 (±0.08%) kJ/mol. Further, the figures for the ΔS in experiment [3] (ITC), in experiment [4] and in experiment [5] (ITC) were −0.54 J/mol/K, 3.72 J/mol/K and −2.34 J/mol/K, respectively. Also, the Kd was 20.6 µM in experiment [3] (Kd, ITC, 298 K); 20.6 µM in experiment [3] (affinity, ITC); 3.48 µM in experiment [4] (Kd, 298 K); 3.5 µM in experiment [4] (affinity); 22.9 µM in experiment [5] (Kd, ITC, 298 K); 22.9 µM in experiment [5] (affinity, ITC). For the same compound, the Kd in experiment [1] (setting [7]) is 0.0016 µM. The Stoichiometry in experiment [3] (setting [6]) is 0.8 ^*; in experiment [4] (fitted n) it was 0.83(±6%); in experiment [5] (setting [6]), 0.8 ^*; in experiment [1] (ITC, fitted n) it was 0.768(±0.38%). In experiment [1] (ITC), the “heat … (exothermic/endothermic)” value is “exothermic”.
